Test results reported in patent US20150239889A1, “PYRAZOLOPYRIMIDINE COMPOUND” (MITSUBISHI TANABE PHARMA CORPORATION, priority 2012, published 2015).

How the values were obtained:
[1] = molecular target: T1, human HIF-PHD2 (Homo sapiens, UniProt Q9GZT9); test: HIF-PHD inhibition assay (fluorescence polarization), human HIF-PHD2; assay type: biochemical; settings: 2-oxoglutaric acid 3.33 μmol/L
T1 construct: purchased CrystalGenomics Ltd
Protocol: (§1) The activity of the test compound to inhibit human HIF-PHD2 and human HIF-PHD3 was determined.
(§2) The value of enzyme activity was calculated by subtracting the value of fluorescence polarization before addition of the enzyme from the value of fluorescence polarization after addition of enzyme (mP value).
(§3) FAM: 5′-fluoresceinamide ACA: aminocaproic acid

[2] = molecular target: T2, human HIF-PHD3 (Homo sapiens, UniProt Q9H6Z9); test: HIF-PHD inhibition assay (fluorescence polarization), human HIF-PHD3; assay type: biochemical; settings: 2-oxoglutaric acid 166 μmol/L
T2 construct: purchased CrystalGenomics Ltd
T2 sequence (Q9H6Z9 whole entry): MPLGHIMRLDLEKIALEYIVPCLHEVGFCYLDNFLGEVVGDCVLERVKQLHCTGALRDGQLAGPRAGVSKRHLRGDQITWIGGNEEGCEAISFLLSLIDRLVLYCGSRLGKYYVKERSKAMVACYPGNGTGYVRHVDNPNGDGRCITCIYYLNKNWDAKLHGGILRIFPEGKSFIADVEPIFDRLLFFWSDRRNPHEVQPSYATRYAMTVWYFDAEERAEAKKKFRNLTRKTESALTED
Protocol: as §1, §2, §3

T1 sequence (Q9GZT9 2-426 limits assumed): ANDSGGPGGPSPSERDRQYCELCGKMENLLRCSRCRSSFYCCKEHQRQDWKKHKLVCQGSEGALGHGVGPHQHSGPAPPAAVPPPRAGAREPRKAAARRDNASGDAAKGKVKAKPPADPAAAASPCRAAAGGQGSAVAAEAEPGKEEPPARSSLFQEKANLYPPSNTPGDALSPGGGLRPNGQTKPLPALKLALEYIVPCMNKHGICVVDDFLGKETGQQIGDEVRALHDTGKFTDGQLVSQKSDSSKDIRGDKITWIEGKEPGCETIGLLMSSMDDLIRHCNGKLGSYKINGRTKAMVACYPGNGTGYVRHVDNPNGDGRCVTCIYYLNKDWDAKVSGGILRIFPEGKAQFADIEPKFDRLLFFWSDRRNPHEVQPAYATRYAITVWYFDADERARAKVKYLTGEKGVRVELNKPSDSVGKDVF

| SMILES | IC50 [1] [µM] | IC50 [2] [µM] |
| --- | --- | --- |
| Cc1cc(C(C)n2ncc3nc(-n4cc(C(=O)O)cn4)nc(O)c32)ccc1F (stereo not drawn) [Example 301] | 0.054 | 0.71 |
| CCC(c1ccc(F)c(F)c1)n1ncc2nc(-n3cc(C(=O)O)cn3)nc(O)c21 (stereo not drawn) [Example 330] | 0.036 | 0.58 |
| CC(C)c1nn(CC2CCCCC2)c2c(O)nc(-n3cc(C(=O)O)cn3)nc12 [Example 233] | 0.12 | 2.8 |
| C[C@@H](c1ccc(F)c(F)c1)n1nc(C2CC2)c2nc(-n3cc(C(=O)O)cn3)nc(O)c21 [Example 459] | 0.11 | 0.43 |
| CC(C)CC(CC(C)C)n1ncc2nc(-n3cc(C(=O)O)cn3)nc(O)c21 [Example 490] | 0.094 | 1.1 |
| O=C(O)c1cnn(-c2nc(O)c3c(cnn3C[C@H]3CCN(c4ccc(C(F)(F)F)cc4)C3)n2)c1 [Example 427] | 0.025 | 0.31 |
| Cc1ccc(C(C)n2ncc3nc(-n4cc(C(=O)O)cn4)nc(O)c32)cc1F (stereo not drawn) [Example 295] | 0.064 | 0.7 |
| O=C(O)c1cnn(-c2nc(O)c3c(cnn3Cc3ccc(-c4ccc(Cl)cc4Cl)cc3)n2)c1 [Example 72] | 0.028 | 0.28 |
| CCC(c1ccc(F)cc1)n1ncc2nc(-n3cc(C(=O)O)cn3)nc(O)c21 (single isomer, unassigned) [Example 325] | 0.036 | 0.63 |
| CC(C)(C)Cn1ncc2nc(-n3cc(C(=O)O)cn3)nc(O)c21 [Example 491] | 0.099 | 0.63 |
| Cc1nn([C@@H](C)c2ccc(F)cc2Cl)c2c(O)nc(-n3cc(C(=O)O)cn3)nc12 [Example 452] | 0.11 | 1.6 |
| C[C@@H](c1ccc(OC(F)(F)F)c(Cl)c1)n1ncc2nc(-n3cc(C(=O)O)cn3)nc(O)c21 [Example 318] | 0.016 | 0.29 |
| Cc1ccc(C(C)n2ncc3nc(-n4cc(C(=O)O)cn4)nc(O)c32)cc1 (single isomer, unassigned) [Example 292] | 0.039 | 0.59 |
| Cc1ccc(Cl)cc1C(C)n1ncc2nc(-n3cc(C(=O)O)cn3)nc(O)c21 (stereo not drawn) [Example 311] | 0.067 | 0.77 |
| Cc1ccc([C@H](C)n2ncc3nc(-n4cc(C(=O)O)cn4)nc(O)c32)cc1C(F)(F)F [Example 278] | 0.12 | 0.42 |
| O=C(O)c1cnn(-c2nc(O)c3c(cnn3C[C@H]3CCN(c4cccc(C(F)(F)F)c4)C3)n2)c1 [Example 429] | 0.022 | 0.54 |
| O=C(O)c1cnn(-c2nc(O)c3c(cnn3Cc3ccc(N4CCC(C(F)(F)F)CC4)cc3)n2)c1 [Example 422] | 0.038 | 0.42 |
| C[C@H]1CC[C@H](n2ncc3nc(-n4cc(C(=O)O)cn4)nc(O)c32)CC1 [Example 384] | 0.06 | 0.5 |
| Cc1cc(F)cc(C(C)n2ncc3nc(-n4cc(C(=O)O)cn4)nc(O)c32)c1 (single isomer, unassigned) [Example 300] | 0.059 | 0.49 |
| O=C(O)c1cnn(-c2nc(O)c3c(cnn3C(c3ccc(F)c(Cl)c3)C3CC3)n2)c1 (single isomer, unassigned) [Example 371] | 0.041 | 0.4 |
| Cc1ccc([C@@H](C)n2ncc3nc(-n4cc(C(=O)O)cn4)nc(O)c32)cc1C(F)(F)F [Example 277] | 0.061 | 0.61 |
| O=C(O)c1cnn(-c2nc(O)c3c(cnn3Cc3cccc4ccccc34)n2)c1 [Example 28] | 0.035 | 0.36 |
| CCC(c1ccc(Cl)c(C)c1)n1ncc2nc(-n3cc(C(=O)O)cn3)nc(O)c21 (stereo not drawn) [Example 346] | 0.065 | 0.53 |
| CC[C@@H](c1ccc(OC(F)(F)F)c(F)c1)n1ncc2nc(-n3cc(C(=O)O)cn3)nc(O)c21 [Example 352] | 0.032 | 0.42 |
| CCC(c1cc(F)cc(Cl)c1)n1ncc2nc(-n3cc(C(=O)O)cn3)nc(O)c21 (stereo not drawn) [Example 339] | 0.036 | 0.37 |
| CC(C)C(c1cccc(C(F)(F)F)c1)n1ncc2nc(-n3cc(C(=O)O)cn3)nc(O)c21 (stereo not drawn) [Example 362] | 0.1 | 1.5 |
| CC(C)C[C@H](C)n1ncc2nc(-n3cc(C(=O)O)cn3)nc(O)c21 [Example 496] | 0.041 | 0.53 |
| COc1cccc(OCCCn2ncc3nc(-n4cc(C(=O)O)cn4)nc(O)c32)c1 [Example 186] | 0.02 | 0.43 |
| CC(C)C(C(C)C)n1ncc2nc(-n3cc(C(=O)O)cn3)nc(O)c21 [Example 489] | 0.15 | 0.9 |
| C[C@H](C1CCC(C)(C)CC1)n1ncc2nc(-n3cc(C(=O)O)cn3)nc(O)c21 [Example 383] | 0.11 | 0.57 |
